# Test results taken from patent publication US10894777B2, “TG2 inhibitor piperazine compounds and uses thereof” (UNIVERSITY OF OTTAWA, priority 2016, dated 2021).
# Tests used:
# TG3a = target: T1, TG3a (Homo sapiens, UniProt Q08188); assay: Fluorescence isopeptidase activity assay (A101 probe), TG3a; type: biochemical
# T1 construct: purchased Zedira
# Experimental: Selectivity of certain irreversible inhibitors over other members of the transglutaminase family was assessed. […] Inhibitors were tested using a continuous colorimetric assay (Leblanc, A. et al., Biochemistry (2001), 40 (28): 8335-8342) for hTG1 and hTG6 and a commercially available continuous fluorescent assay that utilizes a peptidic FRET quenched substrate (Oertel, K. et al., Anal. Biochem. (2007), 367 (2): 152-158; Király, R. et al., Amino Acids (2016), 48 (1): 31-40) for the other transglutaminases, FXIIIa and hTG3. The rate constant of enzyme inactivation (kobs) for a specific concentration of inhibitor was obtained using Kitz and Wilson conditions (Kitz, R. et al., J. Biol. Chem. (1962), 237: 3245-49). Inhibitor concentrations were adjusted to account for competition with substrates in each enzymatic reaction.
# Fluorescence isopeptidase activity assay. The isopeptidase activity of pre-activated TG3a and FXIIIa (purchased from Zedira) was measured via a fluorescence-based assay (Király, R. et al., Amino Acids (2016), 48 (1): 31-40) using the commercially available peptidic FRET quenched probe A101 from Zedira. Briefly, the final concentration in the reaction mixture contained 50 mM Tris (pH 7.0), 10 mM CaCl2, 100 mM NaCl, 2.8 mM TCEP, 50 μM A101 and 14 mM H-Gly-OMe. The reaction was monitored at 25° C. using a BioTek Synergy 4 plate reader (Ex/Em: 318/413 nm).
# A431 cells = assay: Matrigel invasion assay, A431 cells; type: cell-based, human
# Experimental: In (A), it is shown that A431-derived ECS cells have elevated TG2 and mesenchymal markers. A431 cells (40,000 cells/well) were grown in spheroid media in monolayer conditions or as non-attached spheroids (ECS cells) for 10 d. Cells were harvested and lysates prepared for immunoblot. In (B), A431 cells were electroporated with 3 μg of control- or TG2-siRNA and at 72 h extracts were prepared to assay TG2 and EMT marker level. In (C), A431-derived ECS cells were electroporated with 3 μg of the indicated siRNA and then grown as spheroids for 96 h. […] In (D), A431 cells (500,000 cells/well) were plated in monolayer culture in spheroid media in 100 mm dishes. […] Confluent monolayers were then scratched with a 10-μL pipette tip, rinsed, and width of the wound was monitored for 0-14 h.
# In (A), A431 cells were grown as monolayers or in ultralow attachment plates (spheroids) in spheroid medium. […] Spheroid number was counted on days 1, 2 and 3. […] Spheroid number and trypan-blue viable cell number were determined at the indicated times following NC9 addition. […] A wound was created and ability of the cells to close the wound was monitored with time. […]
# Invasion assay. […] The membrane was fixed in 4% paraformaldehyde, stained with 1 μg/m DAPI, and the underside of the membrane was photographed with an inverted fluorescent microscope and the number of cells counted.
# 1321N cells = assay: Agarose colony formation assay, TG2-null 1321N cells; type: cell-based, human; settings: 10 μM, 2 weeks
# Experimental: Agarose colony formation assay. Agarose colony formation assay was conducted as described (Horman, S. R. et al., J. Biomol. Screen 18(10):1298-308, 2013; Zhang, K. et al., Tumour Biol. 35(3):2537-48, 2014) using 6-well plates and 5,000 cells in each well. 10 μM NC9 or DMSO was added to every layer at the start of the experiments. 2 mL liquid MEM containing 10 μM NC9 or DMSO was used to cover the agarose and it was changed 3 times a week. Colony growth was monitored every day and at the end of 10-15 days, the colonies were fixed with 4% paraformaldehyde, stained with 0.005% crystal violet, washed with PBS twice and 40 random pictures were taken from each treatment group. A person blinded for the treatments measured the area of the colonies using ImageJ program and the volumes were calculated from the area data under the assumption that the colonies are perfect spheres. The volumes were used to compare the effect of NC9 on colony growth.
# T1 sequence (Q08188 2-467 limits assumed): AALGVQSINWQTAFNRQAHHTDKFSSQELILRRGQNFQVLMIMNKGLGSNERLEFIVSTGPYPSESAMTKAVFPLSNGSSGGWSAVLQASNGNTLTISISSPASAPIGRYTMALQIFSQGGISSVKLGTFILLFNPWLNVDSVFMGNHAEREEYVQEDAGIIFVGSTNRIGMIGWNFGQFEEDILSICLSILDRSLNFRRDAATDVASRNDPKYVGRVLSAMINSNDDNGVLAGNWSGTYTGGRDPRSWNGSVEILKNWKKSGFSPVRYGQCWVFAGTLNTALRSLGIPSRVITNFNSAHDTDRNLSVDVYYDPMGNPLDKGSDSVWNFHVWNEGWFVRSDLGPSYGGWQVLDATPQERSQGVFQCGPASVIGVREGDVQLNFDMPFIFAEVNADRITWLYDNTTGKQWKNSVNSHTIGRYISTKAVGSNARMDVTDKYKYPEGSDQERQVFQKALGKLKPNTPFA
# T1 sequence (Q08188 468-693 partner limits assumed): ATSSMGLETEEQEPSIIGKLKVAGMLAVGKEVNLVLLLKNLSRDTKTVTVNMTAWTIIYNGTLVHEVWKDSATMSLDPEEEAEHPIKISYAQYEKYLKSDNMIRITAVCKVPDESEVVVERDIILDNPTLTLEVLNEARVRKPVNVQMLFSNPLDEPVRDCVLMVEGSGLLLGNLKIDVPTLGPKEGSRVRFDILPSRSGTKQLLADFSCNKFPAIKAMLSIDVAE
smiles,measurement,setting,value
C=CC(=O)NCCCC[C@H](NC(=O)OCc1ccccc1)C(=O)NCCOCCOCCNS(=O)(=O)c1cccc2c(N(C)C)cccc12 [NC9],"kobs (10^−3 min^−1), TG3a","TG3a; Table 9, Kitz and Wilson conditions",1.01 ± 0.09 10^−3 min^−1
same,selectivity towards hTG2 over hTG3a,TG3a; from kobs,about 390 fold
same,reduction of ability of A431 ECS cells to invade Matrigel,"A431 cells; 20 μM 1 hour, 24 hours",50%
same,matrigel invasion,"A431 cells; 20 μM pretreatment 2 h, 30 h",reduced matrigel invasion
same,"colony growth, 1321N",1321N cells,no effect
